Measured values published in patent publication US20230405006A1, “COMBINATION PHARMACEUTICAL COMPOSITION AND TREATMENT METHOD” (CARNA BIOSCIENCES, INC., priority 2020, published 2023).

Legend:
[1] = test system: mouse B-cell lymphoma cell line A20; assay: Antitumor effect in allograft (syngeneic) mouse model with mouse B-cell lymphoma cell line A20; assay type: in vivo
Method: The antitumor effect of the compound according to the present invention was examined by using a syngeneic mouse tumor model with the mouse B-cell lymphoma cell line A20 (subcutaneous transplantation).
(§1) To RPMI-1640 medium (Life Technologies, No. A1049101), 10% FBS (HyClone), 0.05 mM 2-mercaptoethanol, and 1% penicillin streptomycin (NACALAI TESQUE, INC.) were added to prepare a cell culture medium (hereinafter, referred to as the medium 3). A20 cell (ATCC) were cultured with the medium 3 in a flask in a 5% CO2 incubator.
The density of A20 cells was adjusted with the medium 2 to 5×10^7 cells/mL; thus a cell preparation solution for transplantation was produced. […]
(§2) Forced oral administration of 0.1 mL of the test substance or a solvent per 10 g body weight on that day (15 mg/kg) was performed to each mouse with transplanted cancer cells (six mice per group) twice per day (interval: 6 hours or longer) from day 3 to day 14 after the transplantation. […] The mice were followed up until day 46 after the transplantation, and the tumor diameter of each mouse was measured to calculate the tumor volume by using the same formula as in Example 1 several times per week for evaluation of the antitumor effect.
In addition, tumor was excised from each mouse on day 46 after the transplantation, and the tumor weight was measured.

[2] = test system: mouse colorectal cancer cell line CT26.WT; assay: Antitumor effect in allograft (syngeneic) mouse model with mouse colorectal cancer cell line CT26.WT; assay type: in vivo; details: for tumor growth (time course of tumor volume): CT26.WT subcutaneous, FIG. 1
Method: The antitumor effect of the compound according to the present invention was examined by using a syngeneic mouse tumor model with the mouse colorectal cancer cell line CT26.WT (subcutaneous transplantation).
as §1, with “(Biowest)” for “(HyClone), 0.05 mM 2-mercaptoethanol,”, “1). CT26.WT cells” for “3). A20 cell”, “1” for “3”
The cell density of CT26.WT cells was adjusted with RPMI-1640 medium (containing 1% penicillin streptomycin, hereinafter, referred to as the medium 2) to 5×10^6 cells/mL; thus a cell preparation solution for transplantation was produced. Into the back of each BALB/cCrslc mouse (female, 8-week-old, Japan SLC, Inc.), 0.1 mL of the cell preparation solution for transplantation was subcutaneously transplanted. On day 3 after the transplantation of cancer cells, the cancer-bearing mice were grouped in such a manner that the means of tumor volume (see a calculation formula below) approximated to each other.
As a sample solution for administration of the test substance, a 1.5 mg/mL solution was prepared. The test substance (71.9 mg) was dissolved in DMSO (2.4 mL, NACALAI TESQUE, INC.), to which polyethylene glycol #400 (24.0 mL, NACALAI TESQUE, INC.) was added and mixed well, and 21.5 mL of 30% (w/v) aqueous solution of 2-hydroxypropyl-β-cyclodextrin (HP-β-CD, Wacker Chemical AG) was then added thereto to produce a 1.5 mg/mL sample solution for administration. […]
as §2, with “21” for “14”, “48” for “46”, “following” for “same”, “formula” for “formula as in Example 1”, “effect. […]” for “effect.”

Nc1nc(-c2cccc(-n3ccc4cc(C5CC5)cc(F)c4c3=O)c2CO)c2cc(C3=CCN(C4COC4)CC3)[nH]c2n1 [Compound (I-A), 2-(3-{2-amino-6-[1-(oxetan-3-yl)-1,2,3,6-tetrahydropyridin-4-yl]-7H-pyrrolo[2,3-d]pyrimidin-4-yl}-2-(hydroxymethyl)phenyl)-6-cyclopropyl-8-fluoroisoquinolin-1(2H)-one]
tumor growth / tumor weight on day 46 after the transplantation ([1]; I-A 15 mg/kg oral twice per day (day 3 to 14) in combination with anti-PD-1 antibody 10 mg/kg i.p. twice per week, A20 subcutaneous, FIG. 2): significant tumor growth suppression/tumor regression effect | complete regression of tumor (mice with transplanted tumor) ([1]; I-A 15 mg/kg oral twice per day in combination with anti-PD-1 antibody 10 mg/kg i.p., A20, six mice per group): five of the six | tumor growth (time course of tumor volume) ([2]; I-A 15 mg/kg oral twice per day in combination with anti-PD-1 antibody 10 mg/kg i.p. twice per week): significant tumor growth suppression/tumor regression effect | complete regression of tumor (mice with transplanted tumor) ([2]; I-A 15 mg/kg oral twice per day in combination with anti-PD-1 antibody 10 mg/kg i.p., CT26.WT, six mice per group): five of the six | tumor growth (time course of tumor volume) ([2]; I-A alone, 15 mg/kg oral twice per day, day 3 to 21, BALB/c mice, followed to day 48): suppressed tumor growth
